Reference: patent US20070167353A1, “PRODRUG COMPOSITION” (priority 2003, published 2007)
pIC50: −log10 of the molar value.

Columns and labels:
HPEPT1 [1] = target: T1, HPEPT1 (Homo sapiens, UniProt P46059); assay: Inhibition of radiolabelled Gly-Sar uptake in DC5 cells overexpressing HPEPT1; assay type: cell-based; parameters: expressed in transfected cells; host or cells: HeLa cells overexpressing hPEPT1 (called 'HPEPT1 infected cells'); settings: inhibition of Gly-Sar uptake, DC5 cells overexpressing HPEPT1, 10 min, 37° C.; read-out: DC5 IC50
T1 sequence (P46059 1-708): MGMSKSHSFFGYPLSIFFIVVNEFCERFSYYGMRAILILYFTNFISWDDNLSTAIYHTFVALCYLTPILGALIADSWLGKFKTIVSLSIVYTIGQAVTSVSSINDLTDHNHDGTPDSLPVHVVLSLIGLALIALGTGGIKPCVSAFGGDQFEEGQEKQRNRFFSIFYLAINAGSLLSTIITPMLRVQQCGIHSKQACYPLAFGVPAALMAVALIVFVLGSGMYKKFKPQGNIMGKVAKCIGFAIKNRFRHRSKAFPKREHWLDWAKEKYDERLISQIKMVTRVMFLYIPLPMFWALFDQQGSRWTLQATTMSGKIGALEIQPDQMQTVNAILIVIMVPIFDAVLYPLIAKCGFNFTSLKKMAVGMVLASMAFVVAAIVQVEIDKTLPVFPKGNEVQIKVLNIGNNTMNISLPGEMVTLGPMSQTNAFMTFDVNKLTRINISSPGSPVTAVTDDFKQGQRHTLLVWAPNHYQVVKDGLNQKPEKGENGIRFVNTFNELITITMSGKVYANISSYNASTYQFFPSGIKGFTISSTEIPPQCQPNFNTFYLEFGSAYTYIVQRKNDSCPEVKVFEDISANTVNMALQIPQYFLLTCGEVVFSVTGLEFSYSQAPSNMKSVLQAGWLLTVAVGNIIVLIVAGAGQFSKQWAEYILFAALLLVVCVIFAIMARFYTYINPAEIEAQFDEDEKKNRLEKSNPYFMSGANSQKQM
Description: Amino acid prodrugs are tested for their interaction with the dipeptide transporter, HPEPT1, using tissue culture cells that are engineered to overexpress HPEPT1. In this example, the cells that overexpress HPEPT1, termed DC5, are a human meduloblastoma cell line that is stably transfected with a eukaryotic expression vector encoding HPEPT1. […] DC5 cells are plated at a density of 12,000 cells/well in 96-well tissue culture plates and allowed to grow for 2 days. The cells are washed once with 200 microliters of uptake buffer and aspirated. The plates are cooled to 4° C. and 25 ul of uptake buffer containing 125 nanomoles Gly-Sar (at a specific activity of 1 microcurie/micromole) is added. The uptake buffer also contains the prodrugs to be tested at concentrations ranging from 10 micromolar to 20 millimolar. The assay is initiated by placing the plate in a shaking water bath at 37° C. and is terminated after 10 min by rapid washing with multiple changes of 4° C. phosphate buffered saline (PBS). The radioactive Gly-Sar peptide that is transported by the hpept1 is extracted from the cell layer with 200 ul of a one to one mixture of methanol and water and is counted in 4 ml of CytoScint ES™ scintillation cocktail (ICN). The data are plotted as % Gly-Sar uptake of control (no competitive substrate) versus the competitive substrate concentration. […] Typically, values that are below 10 mM indicate that the drug interacts with transporter.

[2] = target: T2, biphenyl hydrolase-like enzyme (BPHL) (Homo sapiens, UniProt Q86WA6); assay type: biochemical
T2 sequence (Q86WA6 38-291): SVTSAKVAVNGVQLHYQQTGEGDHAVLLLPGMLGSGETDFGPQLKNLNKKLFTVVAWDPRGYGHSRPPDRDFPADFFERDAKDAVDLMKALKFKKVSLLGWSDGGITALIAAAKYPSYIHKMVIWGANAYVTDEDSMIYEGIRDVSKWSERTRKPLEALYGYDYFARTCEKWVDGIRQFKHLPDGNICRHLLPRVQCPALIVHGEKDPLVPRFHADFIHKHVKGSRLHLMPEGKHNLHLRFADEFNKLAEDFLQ

[3] = not given; remark: listed apart in the source
[4] = not given; remark: listed apart in the source
HPEPT1 [5] = target: T1, HPEPT1; settings: for Uptake (hPepT1): HeLa cells overexpressing HPEPT1, 50 micromolar, pH 6.0, 45 minutes; for hPepT1/Control: ratio of uptake in hPepT1 cells versus control cells

| Structure (SMILES) | pIC50 (HPEPT1 [1]) | % of Control (VACV) [2] [%] | t1/2 Caco-2 cell homogenates [min] | t1/2 Human plasma [3] [min] | t1/2 Buffer pH 7.4 [4] [min] | Uptake (hPepT1) (HPEPT1 [5]) | hPepT1/Control (HPEPT1 [5]) |
| --- | --- | --- | --- | --- | --- | --- | --- |
| NC(CC(=O)O)C(=O)OC1CC(n2cc(F)c(=O)[nH]c2=O)OC1CO (stereo not drawn) [3′-O-aspartyl-Floxuridine] | 1.98 | 2.0 | – | – | – | – | – |
| NCCCC[C@H](N)C(=O)O[C@H]1C[C@H](n2cc(F)c(=O)[nH]c2=O)O[C@@H]1CO [3′ lysyl monoester Floxuridine] | – | 7.3 | – | – | – | – | – |
| Nc1nc2c(ncn2COCCO)c(=O)[nH]1 [Acyclovir, reference compound] | < 1.60 | – | – | – | – | – | – |
| NCCCC[C@H](N)C(=O)OC[C@H]1O[C@@H](n2cc(F)c(=O)[nH]c2=O)C[C@@H]1O [5′ lysyl monoester Floxuridine] | – | 8.1 | – | – | – | – | – |
| Nc1ccn([C@@H]2O[C@H](CO)[C@@H](OC(=O)[C@H](N)Cc3ccccc3)C2(F)F)c(=O)n1 [3′-O-D-phenylalanyl Gemcitabine] | – | – | 8.8 ± 0.1 | 7.7 ± 0.2 | 39.0 ± 0.7 | Not detected | – |
| Nc1ccn([C@@H]2O[C@H](COC(=O)[C@H](N)Cc3ccccc3)[C@@H](OC(=O)[C@H](N)Cc3ccccc3)C2(F)F)c(=O)n1 [3′,5′-di-O-D-phenylalanyl Gemcitabine] | – | – | 8.3 ± 0.6 | 2.4 ± 0.2 | 28.0 ± 0.6 | Not detected | – |
| CC(C)[C@H](N)C(=O)OC[C@H]1O[C@@H](n2ccc(N)nc2=O)C(F)(F)[C@@H]1OC(=O)[C@@H](N)C(C)C [3′,5′-di-O-L-valyl Gemcitabine] | 2.76 | – | 0.9 ± 0.0 | 2.0 ± 0.1 | 55.0 ± 2.7 | 1.76 ± 0.09 nmole/mg/45 min | 1.15 |
| CC(C)[C@H](N)C(=O)O[C@@H]1[C@@H](CO)O[C@@H](n2ccc(N)nc2=O)C1(F)F [3′-O-L-valyl Gemcitabine] | 2.43 | – | 5.0 ± 0.1 | 5.4 ± 0.1 | 64.0 ± 1.4 | 1.12 ± 0.07 nmole/mg/45 min | 1.11 |
| CC(C)[C@@H](N)C(=O)OC[C@H]1O[C@@H](n2ccc(N)nc2=O)C(F)(F)[C@@H]1OC(=O)[C@H](N)C(C)C [3′,5′-di-O-D-valyl gemcitabine] | – | – | 10.3 ± 0.7 | 2.1 ± 0.1 | 52.0 ± 1.1 | 1.11 ± 0.08 nmole/mg/45 min | 1.13 |
| CC(C)[C@@H](N)C(=O)O[C@@H]1[C@@H](CO)O[C@@H](n2ccc(N)nc2=O)C1(F)F [3′-O-D-valyl Gemcitabine] | – | – | 23.2 ± 0.2 | 5.99 ± 0.0 | 74.0 ± 1.2 | 0.81 ± 0.02 nmole/mg/45 min | 1.06 |
| O=C(OC1CC(n2cc(F)c(=O)[nH]c2=O)OC1CO)C1CCCN1 (stereo not drawn) [3′-O-prolyl-Floxuridine] | < 1.70 | – | – | – | – | – | – |
| CC(C)[C@@H](N)C(=O)OC[C@H]1O[C@@H](n2ccc(N)nc2=O)C(F)(F)[C@@H]1O [5′-O-D-valyl Gemcitabine] | – | – | 37.4 ± 1.4 | 58.1 ± 2.1 | 424.0 ± 1.2 | 1.14 ± 0.04 nmole/mg/45 min | 1.58 |
| O=C(OCC1OC(n2cc(F)c(=O)[nH]c2=O)CC1OC(=O)C1CCCN1)C1CCCN1 (stereo not drawn) [3′,5′-di-O-prolyl-Floxuridine] | < 1.70 | – | – | – | – | – | – |
| Nc1ccn([C@@H]2O[C@H](COC(=O)[C@H](N)Cc3ccccc3)[C@@H](O)C2(F)F)c(=O)n1 [5′-O-D-phenylalanyl Gemcitabine] | – | – | 11.4 ± 0.2 | 34.8 ± 1.1 | 204.0 ± 3.5 | Not detected | – |
| Nc1ccn([C@@H]2O[C@H](CO)[C@@H](O)C2(F)F)c(=O)n1 [Gemcitabine, reference compound] | < 1.70 | – | – | – | – | – | – |
| CC[C@H](C)[C@H](N)C(=O)O[C@@H]1[C@@H](CO)O[C@@H](n2ccc(N)nc2=O)C1(F)F [3′-O-L-isoleucyl gemcitabine] | 2.66 | – | 10.6 ± 0.3 | 8.0 ± 0.1 | 66.0 ± 0.21 | 1.03 ± 0.11 nmole/mg/45 min | 1.09 |
| Nc1ccn([C@@H]2O[C@H](COC(=O)[C@@H](N)Cc3ccccc3)[C@@H](O)C2(F)F)c(=O)n1 [5′-O-L-phenylalanyl Gemcitabine] | – | – | 3.2 ± 0.1 | 8.4 ± 0.2 | 200.0 ± 1.9 | Not detected | – |
| NCCCCC(N)C(=O)OCC1OC(n2cc(F)c(=O)[nH]c2=O)CC1OC(=O)C(N)CCCCN (stereo not drawn) [3′,5′ lysyl diester Floxuridine] | – | 0.0 | – | – | – | – | – |
| O=C(OCC1OC(n2cc(F)c(=O)[nH]c2=O)CC1O)C1CCCN1 (stereo not drawn) [5′-O-prolyl-Floxuridine] | < 1.70 | – | – | – | – | – | – |
| O=c1[nH]c(=O)n([C@H]2C[C@H](O)[C@@H](CO)O2)cc1F [Floxuridine, reference compound] | < 1.70 | – | – | – | – | – | – |
| Nc1ccn([C@@H]2O[C@H](CO)[C@@H](OC(=O)[C@@H](N)Cc3ccccc3)C2(F)F)c(=O)n1 [3′-O-L-phenylalanyl Gemcitabine] | – | – | 0.8 ± 0.0 | 5.7 ± 0.1 | 39.0 ± 0.12 | Not detected | – |
| CC(C)[C@H](N)C(=O)OC[C@H]1O[C@@H](n2ccc(N)nc2=O)C(F)(F)[C@@H]1O [5′-O-L-valyl Gemcitabine] | 3.15 | – | 7.1 ± 0.6 | 56.4 ± 2.9 | 416.0 ± 8.5 | 2.14 ± 0.05 nmole/mg/45 min | 11.25 |
| Nc1ccn([C@@H]2O[C@H](COC(=O)[C@@H](N)Cc3ccccc3)[C@@H](OC(=O)[C@@H](N)Cc3ccccc3)C2(F)F)c(=O)n1 [3′,5′-di-O-L-phenylalanyl gemcitabine] | – | – | 0.6 ± 0.0 | 0.7 ± 0.0 | 38.0 ± 0.2 | Not detected | – |
| CC[C@H](C)[C@H](N)C(=O)OC[C@H]1O[C@@H](n2ccc(N)nc2=O)C(F)(F)[C@@H]1OC(=O)[C@@H](N)[C@@H](C)CC [3′,5′-di-O-L-isoleucyl gemcitabine] | 3.09 | – | 2.1 ± 0.0 | 2.64 ± 0.0 | 61.0 ± 0.5 | 1.16 ± 0.13 nmole/mg/45 min | 1.06 |
| Nc1nc(O)c2ncn(COC(CO)CO)c2n1 [Ganciclovir, reference compound] | < 1.70 | – | – | – | – | – | – |
| CC[C@H](C)[C@H](N)C(=O)OC[C@H]1O[C@@H](n2ccc(N)nc2=O)C(F)(F)[C@@H]1O [5′-O-L-isoleucyl gemcitabine] | 3.21 | – | 75.3 ± 2.8 | 99.2 ± 1.6 | 452.0 ± 9.6 | 1.22 ± 0.05 nmole/mg/45 min | 5.64 |
